Measurements published in patent publication US6645504B1, “Bystander suppression of type I diabetes by oral administration of glucagon” (AutoImmune Inc., priority 1987, dated 2003).
Where no end group is shown, it is not given here.

Legend:
insulitis = test: Suppression of insulitis in NOD mice by oral administration; assay type: in vivo; details: fed orally; for Insulitis Score: amount (mg) per Table 5, sacrificed at ten weeks of age
Protocol: NOD mice (Taconic Labs) were fed one mg of glucagon, or one mg of porcine insulin (both commercially purchased) or equal molar amounts of insulin A-chain, B-chain and B-chain peptides described below (all insulin fragments having been synthesized) twice weekly for five weeks and sacrificed at ten weeks of age.
Control animals were fed a non-pancreatic (i.e., unrelated) peptide, GAP. Insulitis was measured as a semiquantitative insulitis score according to the method described in Zhang, Z. J., PNAS(USA), 88:10252-10256, 1991.
The insulin B-chain peptides corresponded to amino acid residues 1-12 (B1-12), 10-22 (B10-22), 11-30 (B11-30) and 23-30 (B23-30). All animals were fed 10 times over three weeks.

OVA (responder) line = test: Transwell triggering of suppression by MBP peptides; assay type: cell-based, rats; details: peptide added to modulator well with spleen cells of MBP-fed animals; FIG. 11
Excerpt: Transwell Cultures. A dual chamber transwell culture system (Costar, Cambridge, Mass.), which is 24.5 mm in diameter and consists of two compartments separated by a semi-permeable polycarbonate membrane, with a pore size of 0.4 μm, was used. The two chambers are 1 mm apart, allowing cells to be coin-cubated in close proximity without direct cell-to-cell contact. To measure in vitro suppression of proliferative responses in transwell cultures, 5×10^4 MBP- or OVA-specific line cells, raised and maintained as previously described (Ben-Nun, A. et al., Eur. J. Immunol. 11:195, 1981), were cultured with 10^6 irradiated (2,500 rad) thymocytes, in 600 μl of proliferation media in the lower well. Spleen cells from orally tolerized rats or controls (fed BSA) were added to the upper well (5×10^5 cells in 200 μl). Spleen cells were removed 7-14 days after the last feeding, and a single cell suspension was prepared by pressing the spleens through a stainless steel mesh. MBP and OVA (50 μg/ml) were added in a volume of 20 μl. […] In some experiments, modulator cells were added in the lower well together with responder cells, and in these instances modulator cells were irradiated (1,250 rad) immediately before being placed in culture. Proliferation media consisted of RPMI 1640 (Gibco Laboratories, Grand Island, N.Y.) supplemented with […] 2-mercaptoethanol, 1% sodium pyruvate, 1% penicillin and streptomycin, 1% glutamine, 1% HEPES buffer, 1% nonessential amino acids, and 1% autologous serum. Each transwell was performed in quadruplicate. The transwells were incubated at 37° C. in a humidified 6% CO2 and 94% air atmosphere for 72 hours. After 54 hours of culture, each lower well was pulsed with 4 μCi of [^3H]thymidine and at 72 hours split and reseeded to three wells in a round-bottomed 96-well plate (Costar) for harvesting onto fiberglass filters and counting using standard liquid scintillation techniques. Percent suppression =100×(1−Δ A cpm responders cultured with modulators/Δ cpm of responders).
The Transwell System of Example 2 above was used to identify the epitopes present on guinea pig MBP which induce the release of TGF-β from suppressor T-cells.
Peptides corresponding to guinea pig MBP residue nos.

EAE [1] = test: EAE induced by guinea pig MBP 71-90, feeding of MBP peptides; assay type: in vivo, Lewis rats; details: fed; FIG. 14
Protocol: The effects of feeding various peptides to Lewis rats induced for EAE by guinea pig MBP residue nos. 71-90 (the major immunodominant epitope of guinea pig MBP as shown in Example 3 above) were also studied.
EAE was induced by immunizing with 0.25 mg of guinea pig MBP amino acid residue nos 71-90 in Complete Freund's Adjuvant and the effect of feeding various guinea pig MBP peptides on EAE was examined.

EAE [2] = test: I.V. tolerization with MBP and MBP peptides in EAE induced with whole guinea pig MBP; assay type: in vivo, SJL/J mice; details: days 8 and 9 post immunization, FIG. 16
Excerpt: FIG. 16 is a bar graph showing the effect of intravenous tolerization with MBP and disease inducing and non-inducing fragments thereof on induced EAE expression in SJL/J mice.
Finally, the suppression of EAE by I.V. tolerization with MBP and MBP peptides prior to disease expression (on days 8 and 9 post immunization) was examined.

DTH responses = DTH responses in animals fed MBP or MBP peptides; assay type: in vivo, Lewis rats; details: FIG. 15
Excerpt: Guinea pig MBP peptide 131-150 was ineffective in this case. Peptides were also fed with STI which prevents their breakdown by gastric juices and enhances their biological effect. DTH responses to whole MBP were suppressed by feeding MBP or any one of the MBP-peptides 21-40, or 71-90.

EAE [3] = test: EAE induced with PLP peptide 140-160, oral vs. I.V. administration; assay type: in vivo, SJL/J mice; details: 0.25 mg every other day
Protocol: 2. Fed Mouse MBP (0.25 mg)
3. Fed Bovine PLP (0.25 mg)
4. Inject I.V. Histone (0.25 mg)
5. Inject I.V. MBP (0.25 mg)
6. Inject I.V. PLP (0.25 mg)
Each group was treated every other day for 7 days. In the intravenous group, the material was injected into the eye plexus. The PLP peptide used was the disease inducing fragment 140-160 of bovine PLP. This peptide has the amino acid sequence H2N-[…]-CO2H (SEQ. ID NO: 13), representing the foregoing amino acid residues.

Row | Molecule | suppression of insulitis (in words) (insulitis) | Insulitis Score (insulitis) | other results
1 | B-Chain: insulin B-chain, synthesized | suppressed insulitis | 1.32 | –
2 | guinea pig MBP 51-70: peptide corresponding to guinea pig MBP amino acid residues 51-70 (APKRGSGKDSHHAARTTHYG; UniProt P25188 51-70, looked up, fragment) | – | – | triggering suppression of proliferation in the transwell system (OVA (responder) line): capable of triggering suppression of proliferation
3 | B23-30: insulin B-chain peptide, amino acid residues 23-30 (GFFYTPKT; Insulin B chain; UniProt P01308 47-54, looked up, fragment) | did not | 2.22 | –
4 | glucagon [reference compound] | effective in suppressing insulitis | 1.81 | –
5 | B1-12: insulin B-chain peptide, amino acid residues 1-12 (FVNQHLCGSHLV; ends and bridges not checked; UniProt P01308 25-36, looked up, fragment) | suppressed insulitis | 1.76 | –
6 | guinea pig MBP 131-150: Guinea pig MBP peptide 131-150 (DYKSKGFKGAHDAQGTLSKI; UniProt P25188 131-150, looked up, fragment) | – | – | down-regulation of EAE induced by guinea pig MBP 71-90 (EAE [1]): ineffective; suppression of EAE induced with whole guinea pig MBP (EAE [2]): ineffective in suppressing EAE
7 | B11-30: insulin B-chain peptide, amino acid residues 11-30 (LVEALYLVCGERGFFYTPKT; ends and bridges not checked; UniProt P01308 35-54, looked up, fragment) | suppressed insulitis | 1.44 | –
8 | guinea pig MBP 101-120: peptide corresponding to guinea pig MBP amino acid residues 101-120 (SQGKGRGLSLSRFSWGAEGQ; UniProt P25188 101-120, looked up, fragment) | – | – | triggering suppression of proliferation in the transwell system (OVA (responder) line): capable of triggering suppression of proliferation
9 | B10-22: insulin B-chain peptide, amino acid residues 10-22 (HLVEALYLVCGER; ends and bridges not checked; UniProt P01308 34-46, looked up, fragment) | suppressed insulitis | 1.71 | –
10 | guinea pig MBP 21-40: peptide corresponding to guinea pig MBP amino acid residues 21-40 (MDHARHGFLPRHRDTGILDS; UniProt P25188 21-40, looked up, fragment) | – | – | triggering suppression of proliferation in the transwell system (OVA (responder) line): capable of triggering suppression of proliferation; down-regulation of EAE induced by guinea pig MBP 71-90 (EAE [1]): equally effective in down-regulating EAE; DTH responses to guinea pig MBP peptide 71-90 (DTH responses): not affected; DTH responses to whole MBP (DTH responses): suppressed; suppression of EAE induced with whole guinea pig MBP (EAE [2]): ineffective in suppressing EAE
11 | A-Chain: insulin A-chain, synthesized | suppressed insulitis | 1.88 | –
12 | mouse MBP: Mouse myelin basic protein (protein, UniProt P04370 1-250, looked up) Myelin basic protein: MGNHSGKRELSAEKASKDGEIHRGEAGKKRSVGKLSQTASEDSDVFGEADAIQNNGTSAEDTAVTDSKHTADPKNNWQGAHPADPGNRPHLIRLFSRDAPGREDNTFKDRPSESDELQTIQEDPTAASGGLDVMASQKRPSQRSKYLATASTMDHARHGFLPRHRDTGILDSIGRFFSGDRGAPKRGSGKDSHTRTTHYGSLPQKSQHGRTQDENPVVHFFKNIVTPRTPPPSQGKGGRDSRSGSPMARR | – | – | suppression of PLP-peptide-induced EAE (EAE [3]; orally administered, FIG. 12): equally effective in down-regulating PLP-peptide-induced EAE
13 | bovine PLP: Bovine proteolipid protein (protein, listed as Bos taurus) GLLECCARCLVGAPFASLVATGLCFFGVALFCGCGHEALTGTEKLIETYFSKNYQDYEYLINVIHAFQYVIYGTASFFFLYGALLLAYGFYTTGAVRQIFGDYKTTICGKGLSATVTGGQKGRGSRGQHQAHSLERVCHCLGKWLGHPDKFVGITYALTVVWLLVFACSAVPVYIYFNTWTTCQSIAAPSKTSASIGTLCADARMYGVLPWNAFPGKVCGSNLLSICKTAEFQMTFHLFIAAFVGAAATLVSLVTFMIAATYNFAVLKLMGRGTKF | – | – | suppression of PLP-peptide-induced EAE (EAE [3]; administered intravenously, FIG. 13): effective in suppressing EAE; suppression of PLP-peptide-induced EAE (EAE [3]; orally administered, FIG. 12): equally effective in down-regulating PLP-peptide-induced EAE
